Test results from patent US20040072139A1, “Photodynamic treatment and uv-b-irradiation of a thrombocyte suspension” (priority 2000, published 2004).

Legend:
SHV-1 = type: cell-based, suid herpesvirus 1
T-lymphocytes = experiment: Inactivation of T lymphocytes in PC, ConA-stimulated BRDU proliferation assay; type: cell-based; settings: for Absorption OD450 nm (BRDU incorporation rate): ConA activation, three days cultivation
BVDV = type: cell-based, bovine viral diarrhoea virus
CSFV = type: cell-based, classical swine fever virus
SV-40 = type: cell-based, simian virus-40
HIV-1 = type: cell-based, human immunodeficiency virus, Type 1
SFV = type: cell-based, Semliki Forest virus
platelets [1] = experiment: Collagen-induced aggregation of treated platelet suspensions
platelets [2] = experiment: Hypotonic shock reaction (HSR) of treated platelet suspensions
VSV = type: cell-based, vesicular stomatitis virus
[3] = Experiment 1, Day 1 after treatment, thionine/light + UV-B 2.4 J/cm^2
[4] = Experiment 1, Day 1 after treatment, thionine/light alone
[5] = Experiment 1, Day 3 after treatment, thionine/light + UV-B 2.4 J/cm^2
[6] = Experiment 1, Day 3 after treatment, thionine/light alone
[7] = Experiment 2, Day 1 after treatment, thionine/light + UV-B 2.4 J/cm^2
[8] = Experiment 2, Day 1 after treatment, thionine/light alone
[9] = Experiment 2, Day 3 after treatment, thionine/light + UV-B 2.4 J/cm^2
[10] = Experiment 2, Day 3 after treatment, thionine/light alone
[11] = Experiment 3, Day 1 after treatment, thionine/light + UV-B 2.4 J/cm^2
[12] = Experiment 3, Day 1 after treatment, thionine/light alone
[13] = Experiment 3, Day 3 after treatment, thionine/light + UV-B 2.4 J/cm^2
[14] = Experiment 3, Day 3 after treatment, thionine/light alone
[15] = combined treatment with thionine/light and UV-B compared with photodynamic treatment alone

For `Cl.N=c1ccc2nc3ccc(N)cc3sc-2c1` [Thionine/light, Thionine], the “Reduction of virus titre” value (SHV-1) was “≧3.6 log10TCID50”, the “UV-B irradiation time required for complete inactivation of the cells” value (T-lymphocytes; PC additionally treated with thionine/light (2 μM, 30 min), at least 4 min with UV-B alone) was “approximately 3 min” and the “Absorption OD450 nm (BRDU incorporation rate)” value (shortened to “Absorption OD450 nm”) (T-lymphocytes; Th/light (2 μM, 30 min) then UV-B 0.6 J/cm^2) was 1.020. For the same compound, the “Absorption OD450 nm” value (T-lymphocytes; Th/light (2 μM, 30 min) then UV-B 0.9 J/cm^2) was 0.387, the “Absorption OD450 nm” value (T-lymphocytes; Th/light (2 μM, 30 min) then UV-B 1.2 J/cm^2) was 0.240 and the “Influence on the proliferation of the cells (in words)” value (T-lymphocytes; thionine/light alone (2 μM, 30 min)) was “no influence”. The “Inactivation of virus (in words)” value (BVDV) was “completely inactivated”, the “Reduction of virus titre” value (BVDV) was “≧4.9 log10TCID50” and the “Inactivation of virus (in words)” value (CSFV) was “completely inactivated”. For the same compound, the “Reduction of virus titre” value (CSFV) was “≧5.5 log10TCID50”, the “Infectivity (in words)” value (SV-40) was “still not completely eliminated” and the “Reduction of virus titre” value (SV-40) was 3.9 log10TCID50. The “Reduction of virus titre” value (HIV-1) was “≧5.7 log10TCID50”, the “Inactivation of virus (in words)” value (SFV) was “completely inactivated” and the “Reduction of virus titre” value (SFV) was “≧5.2 log10TCID50”. It also gave a collagen-induced aggregation (platelets [1]; [3]) of 69.75%, a collagen-induced aggregation (platelets [1]; [4]) of 73.25% and a collagen-induced aggregation (platelets [1]; [5]) of 16.75%. For the same compound, the collagen-induced aggregation (platelets [1]; [6]) was 13.75%, the collagen-induced aggregation (platelets [1]; [7]) was 76.67% and the collagen-induced aggregation (platelets [1]; [8]) was 84.67%. The collagen-induced aggregation (platelets [1]; [9]) was 53.50%, the collagen-induced aggregation (platelets [1]; [10]) was 27.67% and the collagen-induced aggregation (platelets [1]; [11]) was 58.33%. For the same compound, the collagen-induced aggregation (platelets [1]; [12]) was 69.67%, the collagen-induced aggregation (platelets [1]; [13]) was 30.33% and the collagen-induced aggregation (platelets [1]; [14]) was 15.67%. The “Influence on collagen-induced aggregation (in words)” value (platelets [1]; [15]) was “neither the HSR (hypotonic shock reaction) nor the collagen-induced aggregation of platelet concentrates is substantially more strongly influenced”, the HSR (platelets [2]; [3]) was 47.86% and the HSR (platelets [2]; [4]) was 65.49%. It also gave an HSR (platelets [2]; [5]) of 51.16%, an HSR (platelets [2]; [6]) of 49.16% and an HSR (platelets [2]; [7]) of 42.37%. The HSR (platelets [2]; [8]) was 56.24%, the HSR (platelets [2]; [9]) was 30.26% and the HSR (platelets [2]; [10]) was 52.61%. It also gave an HSR (platelets [2]; [11]) of 54.45%, an HSR (platelets [2]; [12]) of 69.30% and an HSR (platelets [2]; [13]) of 48.31%. For the same compound, the HSR (platelets [2]; [14]) was 55.49%, the “Influence on HSR (in words)” value (platelets [2]; [15]) was “neither the HSR (hypotonic shock reaction) nor the collagen-induced aggregation of platelet concentrates is substantially more strongly influenced” and the “Infectivity (in words)” value (VSV) was “still not completely eliminated”. The “Reduction of virus titre” value (VSV) was 4.4 log10TCID50.
